Test results taken from patent US8685966B2, “GRP94 inhibitors” (University of Kansas, priority 2011, dated 2014).
“Also recorded” adds a separate entry of the source. Read-outs that look alike come from different tables or passages of the source.

How the values were obtained:
BiP expression = assay: Induction of BiP expression (immunoblot); type: cell-based
HeLa cells = assay: HeLa cell survival (XTT assay), GRP94-sufficient or -deficient cells; type: cell-based; conditions: Homo sapiens, 48 hrs, regardless of presence of GRP94, read-out: IC50 for HeLa cell viability
Procedure: GRP94 and BiP were detected by the anti-KDEL antibody. *, an unknown KDEL-containing band. […] Cell survival was measured by XTT assay (n=4).
Similar results were obtained with other cell lines (e.g. C2C12 in FIG. 6).

IGF-II secretion [1] = conditions: serum-starved C2C12 myoblast cells; cited from earlier work
[2] = target: yHsp82 (yeast homolog of Hsp90β) (Saccharomyces cerevisiae, UniProt P02829); assay: Binding affinity by fluorescent quenching, yHsp82; conditions: read-out: Kd value for yHsp82 (yeast homolog of Hsp90β), FIG. 1B
Grp94 [3] = target: Grp94 (Canis lupus familiaris, UniProt P41148); assay: Binding affinity by fluorescent quenching, Grp94
[4] = system: National Cancer Institute 60-cell panel (NCI-60); assay: NCI 60-cell panel cytotoxicity profile; type: cell-based
Excerpt: This should not dampen excitement for selective Grp94 inhibitors, as numerous studies have shown 3-dimensional tumor response to be drastically different from cell culture responses. Requisite studies are underway to understand the effect of Grp94 inhibition on 3-dimensional tumor models.

[5] = system: Drosophila larvae (w1118); assay: Drosophila larval growth on supplemented fly food; type: in vivo
Excerpt: In the absence of zygotic expression of Gp93, however, larvae display a pronounced growth defect, commensurate with disrupted gut epithelial morphology, decreased gut nutrient uptake, and marked aberrations in copper cell structure and function. As a consequence, loss of Gp93 expression is larval lethal in Drosophila. […]. […] In parallel experiments, larval gut tissue was obtained from each of the feeding conditions and gut epithelial morphology evaluated by fluorescence microscopy. […] Pharmacokinetic studies of compound absorption and metabolism may provide addition insights into this partial phenotypic behavior.
Compound effects on Drosophila larval growth were examined as described in 26. […]

[6] = system: cytosolic Hsp90 (Hsp90α and Hsp90β); assay: Western blot of Hsp90α/β client proteins (Raf, Akt) in HEK293 cell lysates; type: cell-based, human; conditions: for concentration at which Hsp90α/β client proteins (Raf, Akt) are degraded/affected: HEK293, Western blot
Procedure: As previously mentioned, it has been shown that Grp94 is not essential for tissue culture cell viability.^28 In contrast, loss of functional Hsp90α or Hsp90β results in cell death. […]. […] To support these findings, western blot analyses of Hsp90α/β client proteins were performed from HEK293 cell lysates. […].
Briefly, HEK293 cells were plated in 6-well plates and treated with various concentrations of drug, GDA in DMSO (1% DMSO final concentration), or vehicle (DMSO) for 24 h. Cells were harvested in cold PBS and lysed in mammalian protein extraction reagent (MPER, Pierce) and protease inhibitors (Roche) on ice for 1 h. Lysates were clarified at 14,000 g for 10 min at 4° C. Protein concentrations were determined with the Pierce BCA assay kit per the manufacturer's instructions. Equal amounts of protein (10 μg) were electrophoresed under reducing conditions, transferred to a PVDF membrane, and immunoblotted with the corresponding specific antibodies. Membranes were incubated with an appropriate horseradish peroxidase-labeled secondary anti-body, developed with chemiluminescent substrate, and visualized.

IGF-II secretion [7] = assay: IGF-II secretion by serum-starved C2C12 cells (ELISA); type: cell-based, mouse; conditions: 10 μM
Procedure: IGF-II is a second well-defined Grp94-dependent client protein and active Grp94 is required for the secretion of IGF-11 (Ostrovsky et al., 2009).
For IGF-II ELISA, plates were coated with anti-IGF-II (MAb 792, R&D Systems) and incubated with the test cell media. The bound IGF-II was detected with a biotinylated anti-IGF-II antibody (BAF792, R&D Systems) and developed with streptavidin-HRP (R&D Systems) according to the manufacturer's recommended procedure. Optical density units were converted to concentrations of the growth factor with a standard curve generated with recombinant IGF-II (792-MG) (R&D Systems). Data were acquired in duplicate on a microtiter-plate reader (Dynatech Laboratories, Chantilly, Va.) at 450 nm.

cytosolic Hsp90 = assay: Akt stability in the BiP induction experiment (immunoblot); type: cell-based; conditions: same concentrations as BiP induction
Procedure: NIH-3T3 cells were treated with 25 μM of 17-AAG (AAG), 10 μM of RDC or 0-50 μM of 2. After 18 hrs cells were harvested for SDS-PAGE and analyzed by immunoblotting. Grp94, BiP and PDIA6 were detected with the monoclonal anti-KDEL antibody, AKT by rabbit anti-serum. 14-3-3 served as loading control. Numbers below BiP, Grp94, and AKT bands are the relative expression levels, determined by densitometry.
Inhibition of Hsp90 is also known to induce expression of Hsp70 and this response is useful as a diagnostic tool (FIG. 11).^61-62 A parallel response exists when Grp94 expression is ablated by RNAi, or when its activity is inhibited by RDC or 17-AAG: a transcriptional response is initiated that leads to upregulation of expression of BiP, the ER member of the Hsp70 family (Eletto et al., submitted). We therefore assessed the ability of 2 to cause BiP up-regulation, in comparison to pan-Hsp90 inhibitors. […] However, at these concentrations, the compound also destabilized Akt, a hallmark of inhibition of cytosolic Hsp90 (FIG. 12).

C2C12 cells = assay: C2C12 cell viability (XTT assay); conditions: same treatment as IGF-II assay
Procedure: The viability of cells treated as in A was measured at each of the indicated concentrations by the XTT assay.
C2C12 cells (ATCC, Rockville, Md.) were induced to differentiate either by complete withdrawal of serum or by shifting to medium supplemented with 2% house serum. […] Cell growth was measured with the XTT formazan colorimetric assay (Roche), cells were grown in 3% serum, to limit the background of the assay.

[8] = system: MCF7 (ER+) breast cancer cells; assay: Anti-proliferative activity, MCF7; type: cell-based, human; conditions: said to be mimicked by the client degradation value; read-out: observed IC50 in MCF7
Procedure: (§1) As previously mentioned, it has been shown that Grp94 is not essential for tissue culture cell viability.^28 In contrast, loss of functional Hsp90α or Hsp90β results in cell death. Therefore, we investigated the anti-proliferative effects of compounds 1-5 against two breast cancer cells, MCF7 (ER+) and SKBR3 (Her2 overexpressing, ER—), and against the non-transformed HEK293 cells. […] To support these findings, western blot analyses of Hsp90α/β client proteins were performed from HEK293 cell lysates.

Grp94 [9] = target: T1, Grp94 (Homo sapiens, UniProt P14625); assay: Toll trafficking assay in Toll-transfected HEK293 cells; type: cell-based; conditions: Toll presentation inhibition versus Western blot of Hsp90-dependent client proteins
T1 construct: endogenous in cells; host or cells: HEK293 (transfected only with pcDNA6B-Toll-Flag, the read-out client)

[10] = system: SKBR3 (Her2 overexpressing, ER—) breast cancer cells; assay: Anti-proliferative activity, SKBR3; type: cell-based, human; conditions: said to be mimicked by the client degradation value; read-out: observed IC50 in SkBR3
Procedure: as §1

[11] = read-out: Kd value for Grp94, fluorescent quenching, FIG. 1B
[12] = read-out: kd for binding to the Hsp90 isoform GRP94

Grp94 (Canis lupus familiaris, UniProt P41148), sequence (P41148 22-804): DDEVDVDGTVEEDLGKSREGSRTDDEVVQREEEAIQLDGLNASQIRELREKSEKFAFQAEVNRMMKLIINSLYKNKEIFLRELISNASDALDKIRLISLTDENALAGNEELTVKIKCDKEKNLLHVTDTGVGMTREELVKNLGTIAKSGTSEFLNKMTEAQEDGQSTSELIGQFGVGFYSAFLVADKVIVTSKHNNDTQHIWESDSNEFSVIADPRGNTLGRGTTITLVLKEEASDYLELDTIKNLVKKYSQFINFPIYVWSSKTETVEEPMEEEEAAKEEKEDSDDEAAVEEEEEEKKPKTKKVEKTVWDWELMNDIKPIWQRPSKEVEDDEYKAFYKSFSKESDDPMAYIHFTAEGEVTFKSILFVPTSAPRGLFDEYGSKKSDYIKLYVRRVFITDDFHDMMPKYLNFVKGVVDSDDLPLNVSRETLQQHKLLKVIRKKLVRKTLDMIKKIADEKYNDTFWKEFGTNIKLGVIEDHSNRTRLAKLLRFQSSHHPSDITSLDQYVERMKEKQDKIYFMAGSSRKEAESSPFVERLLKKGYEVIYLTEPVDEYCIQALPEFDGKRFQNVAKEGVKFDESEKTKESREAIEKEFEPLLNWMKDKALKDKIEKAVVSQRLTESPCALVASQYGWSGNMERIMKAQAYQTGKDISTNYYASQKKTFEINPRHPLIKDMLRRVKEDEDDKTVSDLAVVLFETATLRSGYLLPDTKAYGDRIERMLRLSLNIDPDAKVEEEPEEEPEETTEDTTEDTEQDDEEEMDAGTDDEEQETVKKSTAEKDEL
yHsp82 (yeast homolog of Hsp90β), sequence (P02829 whole entry): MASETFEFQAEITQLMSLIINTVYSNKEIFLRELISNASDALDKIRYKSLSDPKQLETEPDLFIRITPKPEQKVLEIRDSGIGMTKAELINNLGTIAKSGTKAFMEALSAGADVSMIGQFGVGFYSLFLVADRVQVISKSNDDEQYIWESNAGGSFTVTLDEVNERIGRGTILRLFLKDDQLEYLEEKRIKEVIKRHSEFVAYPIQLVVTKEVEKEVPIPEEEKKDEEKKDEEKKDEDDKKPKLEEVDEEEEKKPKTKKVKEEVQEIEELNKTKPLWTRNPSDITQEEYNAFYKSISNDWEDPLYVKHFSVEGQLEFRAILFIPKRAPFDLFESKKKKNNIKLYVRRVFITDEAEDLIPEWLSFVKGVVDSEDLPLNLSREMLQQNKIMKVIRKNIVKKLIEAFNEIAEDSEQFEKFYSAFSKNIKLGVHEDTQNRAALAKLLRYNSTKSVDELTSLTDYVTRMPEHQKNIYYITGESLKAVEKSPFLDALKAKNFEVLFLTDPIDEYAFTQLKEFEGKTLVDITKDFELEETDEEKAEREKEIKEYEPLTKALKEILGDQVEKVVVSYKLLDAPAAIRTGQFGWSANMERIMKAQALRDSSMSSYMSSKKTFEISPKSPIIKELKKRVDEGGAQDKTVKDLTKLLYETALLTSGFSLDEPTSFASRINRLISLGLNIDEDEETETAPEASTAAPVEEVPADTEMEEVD
T1 sequence (P14625 22-803): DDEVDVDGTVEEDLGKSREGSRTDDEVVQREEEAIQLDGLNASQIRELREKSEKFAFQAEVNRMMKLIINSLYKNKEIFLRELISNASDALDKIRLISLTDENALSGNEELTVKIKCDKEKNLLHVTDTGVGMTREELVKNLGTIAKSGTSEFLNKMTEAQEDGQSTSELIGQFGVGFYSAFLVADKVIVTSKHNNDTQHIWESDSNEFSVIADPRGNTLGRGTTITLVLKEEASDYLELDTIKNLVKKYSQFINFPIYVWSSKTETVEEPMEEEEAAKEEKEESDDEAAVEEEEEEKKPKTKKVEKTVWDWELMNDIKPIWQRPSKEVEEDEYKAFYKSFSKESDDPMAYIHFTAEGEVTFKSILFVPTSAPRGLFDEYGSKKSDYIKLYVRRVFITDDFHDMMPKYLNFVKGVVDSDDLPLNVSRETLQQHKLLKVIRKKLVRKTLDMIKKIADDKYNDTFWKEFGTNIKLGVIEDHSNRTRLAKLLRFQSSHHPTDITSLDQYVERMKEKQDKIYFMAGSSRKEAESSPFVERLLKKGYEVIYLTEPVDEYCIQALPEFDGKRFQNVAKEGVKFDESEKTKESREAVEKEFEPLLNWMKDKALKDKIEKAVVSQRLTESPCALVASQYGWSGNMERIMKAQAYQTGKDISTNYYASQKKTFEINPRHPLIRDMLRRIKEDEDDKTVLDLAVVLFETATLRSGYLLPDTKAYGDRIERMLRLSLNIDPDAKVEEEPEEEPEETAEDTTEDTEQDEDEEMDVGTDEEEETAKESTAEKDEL

For `C[C@@H]1C[C@H]2O[C@@H]2/C=C\C=C\C(=O)Cc2c(Cl)c(O)cc(O)c2C(=O)O1` [RDC, radicicol], the BiP up-regulation (BiP expression; 10 μM) was “did cause BiP up-regulation” and the IC50 (HeLa cells) was 8000 nM.

For `C=CCNC1=C2C[C@@H](C)C[C@H](OC)[C@H](O)[C@@H](C)/C=C(\C)[C@H](OC(N)=O)[C@@H](OC)/C=C\C=C(/C)C(=O)NC(=CC1=O)C2=O` [Compound 17-AAG, 17-(allylamino)-17-demethoxygeldanamycin], the BiP up-regulation (BiP expression; 25 μM, data not shown) is listed as “did cause BiP up-regulation” and the “secretion of IGF-II (previously demonstrated)” value (IGF-II secretion [1]) is listed as “prevent the secretion of IGF-II”.

For `COC(=O)c1c(O)cc(O)c(Cl)c1CCC(=O)NC1=CC(=O)C(OC)=CC1=O` [Radamide], the Kd [2] was 870 ± 140 nM, the “fold higher binding affinity for full-length Grp94 than yHsp82” value (Grp94 [3]; full-length Grp94 vs yHsp82) was “approximately 2 fold” and the Kd (Grp94 [3]; [11]) was 520 ± 130 nM. It also gave a Kd (Grp94 [3]; [12]) of 254 nM.

In the case of `COC(=O)c1c(O)cc(O)c(Cl)c1CCc1nccn1Cc1ccccc1` [Compound 2, Methyl 2-(2-(1-benzyl-1H-imidazol-2-yl)ethyl)-3-chloro-4,6-dihydroxybenzoate], the BiP up-regulation (BiP expression; 0-75 μM, C2C12 cells) is reported as “did not lead to up-regulation of BiP”, the “concentration inducing BiP expression” value (BiP expression; resembles RDC) is reported as “above 200 μM” and the “cytotoxicity across all 60 transformed cell lines” value [4] is reported as “negligible cytotoxicity”. For the same molecule, the Drosophila larval growth ([5]; 250 μg/ml to 1 mg/ml in fly food, 96 hours) was “dramatic growth phenotype; also recorded: stunted the growth of Drosophila larvae in a dose-dependent manner”, the “larval gut copper cell structure” value ([5]; fluorescence microscopy of gut tissue, data not shown) was “No grossly discernible effects on copper cell structure” and the HSP70 induction ([6]; HEK293, 100 μM) was “induction of HSP70”. For the same molecule, the “concentration at which Hsp90α/β client proteins (Raf, Akt) are degraded/affected” value [6] was 100 µM, the “reduction of IGF-II secretion” value (IGF-II secretion [7]) was “Approximately 60%” and the “concentration at which Akt is destabilized” value (cytosolic Hsp90) was “above 200 μM”. For the same molecule, the “effect on cell viability” value (C2C12 cells) was “little effect on cell viability”.

Molecule cis-radamide [cRDA] has a Kd [2] of 240 ± 120 nM, a Kd (Grp94 [3]; [11]) of 110 ± 20 nM and a Kd (Grp94 [3]; [12]) of 110 nM. The IC50 [8] was about 1000 nM, the “selectivity for GRP94 versus cytoplasmic Hsp90 α/β” value (Grp94 [9]) was “minimal selectivity” and the “concentration at which Hsp90α/β client proteins (Raf, Akt) are degraded/affected” value [6] was about 1 µM. The IC50 [10] was about 1000 nM.
